Measured values as given in patent publication US20240124504A1, “AROMATIC HETEROCYCLIC COMPOUND, AND PHARMACEUTICAL COMPOSITION AND APPLICATION THEREOF” (GT APEIRON THERAPEUTICS LIMITED, priority 2020, published 2024).

Experiments:
[1] = biological target: T1, CDK12 (aa686-1082)/cyclinK complex (Homo sapiens, UniProt Q9NYV4); experiment: In-vitro enzymatic inhibitory activity testing, CDK12 inhibition assay (Caliper EZ Reader II); format: biochemical; settings: CDK12/cyclinK 50 nM, 180 min at 27° C.; read-out: CDK12 IC50
T1 construct: A CDK12 (aa686-1082)/cyclinK complex (50 nM)
Summary of the method: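 Caliper EZ Reader II mobility-shift separation of 5-FAM-CDK9tide substrate (2 μM) from phosphoproduct, using 50 nM CDK12 (aa686-1082)/cyclinK in 80 mM MES pH 6.5, 10 mM MgCl2, 0.01% Tween 20, 50 ug/mL BSA. Compound pre-incubated 10 min with enzyme, then substrate/ATP added for 180 min at 27° C; EDTA stop. IC50 by nonlinear dose-response regression.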

CDK2/cyclinE1 complex = CDK2/cyclinE1 complex (Homo sapiens, UniProt P24941); experiment: In-vitro enzymatic inhibitory activity testing, CDK2 inhibition assay (Caliper EZ Reader II); format: biochemical; settings: CDK2/cyclinE1 0.5 nM, 180 min at 27° C.
Summary of the method: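 CDK2/cyclinE1 (0.5 nM) phosphorylated 5-FAM-CDK7tide (2 μM) in MES buffer pH 6.5 with MgCl2, Tween 20 and BSA. Substrate and product were separated electrophoretically on a Caliper EZ Reader II. IC50 values came from nonlinear dose-response fits.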

ovarian cancer A2780 = experiment: Cell biological activity detection (CyQuant, 72 hours), A2780; format: cell-based, human; settings: A2780 cells, incubation for 72 hours
Summary of the method: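 A2780 and HCC70 cells seeded at 2000/well in RPMI 1640 + 10% FBS, treated next day with 9-point compound dilutions (top 10 μM, 1:4; 0.2% DMSO) for 72 h at 37 °C. Cell number read by CyQuant Direct nucleic acid stain (ex 488 nm); IC50 from dose–response fit.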

T1 sequence (Q9NYV4 686-1082, species assumed): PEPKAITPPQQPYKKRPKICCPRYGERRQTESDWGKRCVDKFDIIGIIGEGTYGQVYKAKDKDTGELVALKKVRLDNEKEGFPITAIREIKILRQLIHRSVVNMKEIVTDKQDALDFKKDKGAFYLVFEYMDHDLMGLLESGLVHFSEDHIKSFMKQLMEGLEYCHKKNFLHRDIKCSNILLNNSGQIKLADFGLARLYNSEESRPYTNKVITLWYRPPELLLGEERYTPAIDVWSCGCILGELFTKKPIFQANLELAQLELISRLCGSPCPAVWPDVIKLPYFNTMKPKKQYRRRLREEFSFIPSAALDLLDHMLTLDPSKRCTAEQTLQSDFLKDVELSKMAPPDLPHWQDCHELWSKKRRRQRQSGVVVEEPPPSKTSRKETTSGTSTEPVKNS
T1 sequence (O75909 whole entry partner, species assumed, the tested form may be a part): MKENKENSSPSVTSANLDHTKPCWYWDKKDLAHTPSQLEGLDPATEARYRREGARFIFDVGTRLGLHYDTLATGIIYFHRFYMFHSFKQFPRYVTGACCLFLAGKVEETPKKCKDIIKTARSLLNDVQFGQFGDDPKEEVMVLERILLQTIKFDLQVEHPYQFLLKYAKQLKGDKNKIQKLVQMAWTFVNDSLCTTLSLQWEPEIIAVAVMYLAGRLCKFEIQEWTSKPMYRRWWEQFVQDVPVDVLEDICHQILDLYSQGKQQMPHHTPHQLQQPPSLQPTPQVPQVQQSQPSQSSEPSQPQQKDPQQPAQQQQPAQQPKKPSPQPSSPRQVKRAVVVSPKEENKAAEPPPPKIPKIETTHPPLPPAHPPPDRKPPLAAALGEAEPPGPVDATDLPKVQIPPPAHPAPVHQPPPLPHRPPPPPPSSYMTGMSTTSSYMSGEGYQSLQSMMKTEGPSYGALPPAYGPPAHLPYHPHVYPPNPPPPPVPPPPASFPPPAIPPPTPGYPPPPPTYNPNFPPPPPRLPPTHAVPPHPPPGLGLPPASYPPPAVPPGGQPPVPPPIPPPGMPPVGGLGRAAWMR

| IC50 [1] [µM] | IC50 (CDK2/cyclinE1 complex) [µM] | IC50 (ovarian cancer A2780; Homo sapiens, A2780, 72 h) [µM] | IC50 (ovarian cancer A2780) [µM] | Structure (SMILES) |
| --- | --- | --- | --- | --- |
| 5 to 50 | 0.2 to 5 | 0.02 to 0.2 |  | C[C@@H](CO)Nc1ncc(C#N)c(-c2c[nH]c3c(P(C)(C)=O)cccc23)n1 [Compound 179, (S)-4-(7-(dimethylphosphoryl)-1H-indole-3-yl)-2-((1-hydroxypropan-2-yl)amino)pyrimidine-5-carbonitrile] |
| 5 to 50 | 0.2 to 5 | < 0.02 |  | CP(C)(=O)c1cccc2c(-c3nc(N[C@H]4CCC[C@@H]4O)ncc3C(F)(F)F)c[nH]c12 [Compound 155, (3-(2-(((1S,2S)-2-hydroxycyclopentyl)amino)-5-(trifluoromethyl)pyrimidin-4-yl)-1hydro-indole-7-yl)dimethylphosphine oxide] |
| > 50 | 0.2 to 5 | 0.02 to 0.2 |  | CP(C)(=O)c1cccc2c(-c3nc(NCC4CC(O)C4)ncc3C(F)(F)F)c[nH]c12 (stereo not drawn) [Compound 126, (3-(2-(((3-hydroxycyclobutyl)methyl)amino)-5-(trifluoromethyl)pyrimidin-4-yl)-1H-indole-7-yl)dimethylphosphine oxide] |
| 0.2 to 5 | 0.2 to 5 | < 0.02 |  | CN(C)[C@H]1CC[C@H](Nc2ncc(C(F)(F)F)c(-c3c[nH]c4c(P(C)(C)=O)cccc34)n2)C1 [Compound 137, (3-(2-(((1S,3S)-3-(dimethylamino)cyclopentyl)amino)-5-(trifluoromethyl)pyrimidin-4-yl)-1H-indole-7-yl)dimethylphosphine oxide] |
| > 50 | 5 to 50 |  | 0.02 to 0.2 | CP(C)(=O)c1cccc2c(-c3nc(NCC4CC4CO)ncc3C(F)(F)F)c[nH]c12 (single isomer, unassigned) [Compound 144] |
| 5 to 50 | 0.2 to 5 | < 0.02 |  | CP(C)(=O)c1cccc2c(-c3nc(N[C@H]4CC[C@H](O)C4)ncc3C(F)(F)F)c[nH]c12 [Compound 83] |
| > 50 | 0.2 to 5 | 0.02 to 0.2 |  | C[C@@H](CO)Nc1ncc(Cl)c(-c2c[nH]c3c(P(C)(C)=O)cccc23)n1 [Compound 103, (S)-(3-(5-chloro-2-((1-hydroxypropan-2-yl)amino)pyrimidin-4-yl)-1H-indole-7-yl)dimethylphosphine oxide] |
| > 50 | 0.2 to 5 | < 0.02 |  | CP(C)(=O)c1cccc2c(-c3nc(NC[C@H](F)CO)ncc3C(F)(F)F)c[nH]c12 [Compound 86, (S)-(3-(2-((2-fluoro-3-hydroxypropyl)amino)-5-(trifluoromethyl)pyrimidin-4-yl)-1H-indole-7-yl)dimethylphosphine oxide] |
| > 50 | 5 to 50 | < 0.02 |  | CP(C)(=O)c1cccc2c(-c3nc(NC4(CO)CC4)ncc3C(F)(F)F)c[nH]c12 [Compound 94, (3-(2-((1-(hydroxymethyl)cyclopropyl)amino)-5-(trifluoromethyl)pyrimidin-4-yl)-1H-indole-7-yl)dimethylphosphine oxide] |
| > 50 | 0.2 to 5 |  | 0.02 to 0.2 | CC(CO)CNc1ncc(C(F)(F)F)c(-c2c[nH]c3c(P(C)(C)=O)cccc23)n1 (single isomer, unassigned) [Compound 150] |
| > 50 | 0.2 to 5 | < 0.02 |  | C[C@@H](CO)Nc1ncc(C(F)(F)F)c(-c2c[nH]c3c(P(C)(C)=O)c(C#N)ccc23)n1 [Compound 79, (S)-7-(dimethylphosphoryl)-3-(2-((1-hydroxy-propan-2-yl)amino)-5-(trifluoromethyl)pyrimidin-4-yl)-1H-indole-6-carbonitrile] |
| > 50 | 0.2 to 5 | 0.02 to 0.2 |  | CC(CO)CNc1ncc(C(F)(F)F)c(-c2c[nH]c3c(P(C)(C)=O)cccc23)n1 (single isomer, unassigned) [Compound 149] |
| > 50 | 0.2 to 5 | < 0.02 |  | CP(C)(=O)c1cccc2c(-c3nc(NCCO)ncc3C(F)(F)F)c[nH]c12 [Compound 97, (3-(2-((2-hydroxyethyl)amino)-5-(trifluoromethyl)pyrimidin-4-yl)-1H-indole-7-yl)dimethylphosphine oxide] |
| > 50 | 0.2 to 5 | < 0.02 |  | CP(C)(=O)c1cccc2c(-c3nc(N[C@H]4COC[C@@H]4O)ncc3C(F)(F)F)c[nH]c12 [Compound 87] |
| > 50 | 0.2 to 5 | < 0.02 |  | CP(C)(=O)c1cccc2c(-c3nc(NCCCO)ncc3C(F)(F)F)c[nH]c12 [Compound 89, (3-(2-((3-hydroxypropyl)amino)-5-(trifluoromethyl)pyrimidin-4-yl)-1H-indole-7-yl)dimethylphosphine oxide] |
| > 50 | 0.2 to 5 | < 0.02 |  | CC[C@@H](CO)Nc1ncc(C(F)(F)F)c(-c2c[nH]c3c(P(C)(C)=O)cccc23)n1 [Compound 88, (S)-(3-(2-((1-hydroxybutan-2-yl)amino)-5-(trifluoromethyl)pyrimidin-4-yl)-1H-indole-7-yl)dimethylphosphine oxide] |
| > 50 | 5 to 50 |  | 0.02 to 0.2 | CP(C)(=O)c1cccc2c(-c3nc(NC4(CO)CCOC4)ncc3C(F)(F)F)c[nH]c12 (single isomer, unassigned) [Compound 119] |
| 5 to 50 | 5 to 50 | < 0.02 |  | CC1(C)COCC(Nc2ncc(C(F)(F)F)c(-c3c[nH]c4c(P(C)(C)=O)cccc34)n2)CN1 (single isomer, unassigned) [Compound 91, (3-(2-((3,3-dimethyl-1,4-oxazepan-6-yl)amino)-5-(trifluoromethyl)pyrimidin-4-yl)-1H-indole-7-yl)dimethylphosphine oxide] |
| 5 to 50 | 0.2 to 5 | < 0.02 |  | CP(C)(=O)c1cccc2c(-c3nc(N[C@H]4CC[C@@H]4O)ncc3C(F)(F)F)c[nH]c12 [Compound 154, (3-(2-(((1S,2S)-2-hydroxycyclobutyl)amino)-5-(trifluoromethyl)pyrimidin-4-yl)-1hydro-indole-7-yl)dimethylphosphine oxide] |
| > 50 | 5 to 50 | < 0.02 |  | CP(C)(=O)c1cccc2c(-c3nc(NC4(CO)CCOC4)ncc3C(F)(F)F)c[nH]c12 (single isomer, unassigned) [Compound 118] |
| > 50 | 0.2 to 5 | 0.02 to 0.2 |  | CP(C)(=O)c1cccc2c(-c3nc(N[C@@H]4CC[C@H]4O)ncc3C(F)(F)F)c[nH]c12 [Compound 153, (3-(2-(((1R,2R)-2-hydroxycyclobutyl)amino)-5-(trifluoromethyl)pyrimidin-4-yl)-1hydro-indole-7-yl)dimethylphosphine oxide] |
| 5 to 50 | 0.2 to 5 | < 0.02 |  | C[C@H](CO)Nc1ncc(C(F)(F)F)c(-c2c[nH]c3c(P(C)(C)=O)cccc23)n1 [Compound 93, (R)-(3-(2-((1-hydroxypropyl-2-yl)amino)-5-(trifluoromethyl)pyrimidin-4-yl)-1H-indole-7-yl)dimethylphosphine oxide] |
| > 50 | 5 to 50 | < 0.02 |  | CP(C)(=O)c1cccc2c(-c3nc(NCC(F)(F)CO)ncc3C(F)(F)F)c[nH]c12 [Compound 102, (3-(2-((2,2-difluoro-3-hydroxypropyl)amino)-5-(trifluoromethyl)pyrimidin-4-yl)-1H-indole-7-yl)dimethylphosphine oxide] |
| > 50 | 0.2 to 5 | < 0.02 |  | CP(C)(=O)c1cccc2c(-c3nc(NC4(CO)COC4)ncc3C(F)(F)F)c[nH]c12 [Compound 114, (3-(2-((3-(hydroxymethyl)oxetan-3-yl)amino)-5-(trifluoromethyl)pyrimidin-4-yl)-1H-indole-7-yl)dimethylphosphine oxide] |
| 0.2 to 5 | 0.2 to 5 | < 0.02 |  | CP(C)(=O)c1cccc2c(-c3nc(NC45CC(O)(C4)C5)ncc3C(F)(F)F)c[nH]c12 [Compound 174, (3-(2-((3-hydroxybicyclo[1.1.1]pentan-1-yl)amino)-5-(trifluoromethyl)pyrimidin-4-yl)-1H-indole-7-yl)dimethylphosphine oxide] |
| > 50 | 5 to 50 | 0.02 to 0.2 |  | CP(C)(=O)c1cccc2c(-c3nc(NCC4CC4CO)ncc3C(F)(F)F)c[nH]c12 (single isomer, unassigned) [Compound 143] |
| > 50 | 5 to 50 | < 0.02 |  | CP(C)(=O)c1cccc2c(-c3nc(NC4(CO)CC(F)(F)C4)ncc3C(F)(F)F)c[nH]c12 [Compound 96, (3-(2-((3,3-difluoro-1-(hydroxymethyl)cyclobutyl)amino)-5-(trifluoromethyl)pyrimidin-4-yl)-1H-indole-7-yl)dimethylphosphine oxide] |
| > 50 | 5 to 50 |  | 0.02 to 0.2 | CC(O)[C@H](C)Nc1ncc(C(F)(F)F)c(-c2c[nH]c3c(P(C)(C)=O)cccc23)n1 (single isomer, unassigned) [Compound 130] |
| 5 to 50 | 0.2 to 5 | < 0.02 |  | C[C@@H](CO)Nc1ncc(C(F)(F)F)c(-c2c[nH]c3c(P(C)(C)=O)c(F)ccc23)n1 [Compound 195] |
